Measurements taken from patent US20080131920A1, “Ion flux in biological processes, and methods related thereto” (priority 2005, published 2008).

Experiments:
[1] = system: Xenopus tail regeneration; conditions: compound in medium beginning immediately after tail amputation (stage 40-41)
[2] = system: Sonic hedgehog (Shh), Nodal; experiment: Sidedness of Shh and Nodal expression in chick embryos (in ovo culture, in situ hybridization); conditions: in vivo
Description: We examined the effect of inhibiting H^+-V-ATPase activity on the expression of the early left-sided marker Sonic hedgehog (Shh). Inhibition of H^+-V-ATPase activity following treatment with concanamycin or DCCD specifically randomized the expression of Shh, as well as that of and the downstream marker Nodal. Compared to controls, in which these two markers are always left-sided, concanamycin induced aberrant sidedness of Shh expression in 67% and Nodal in 24% of embryos. Thus, as in Xenopus, H^+-V-ATPase is upstream of the known asymmetric gene cascade, and is required for normal LR patterning in chicks.
To perform a pharmacological screen on chick embryos with minimal disturbance to normal morphogenesis, we optimized a chicken in ovo culture system. A small hole was made on the top of each egg (prior to incubation), and 5 ml of light albumin was removed. […]. Eggs were securely wrapped with Scotch tape, incubated at 37.5° C. to the desired stages, then fixed for analysis of laterality markers by in situ hybridization.
Whole mount in situ hybridization (WISH) on Xenopus was performed according to standard methods. DNA used to transcribe in situ hybridization probes were XNr-1 (Lohr et al., 1998, Developmental Genetics 23: 194-202; Lowe et al., 1996, Nature 381: 158-161); cShh (Levin et al., 1995, Cell 82: 803-814); cNodal (Levin et al., 1995, Cell 82: 803-814).

Dugesia japonica = experiment: Planarian regeneration, anterior-posterior phenotype (anteriorizing index) under GJC inhibition; type: in vivo
Method: Regenerating worms were contacted with the compound at an early stage of regeneration (2 days after cutting). 1-10 μM heptanol was dissolved in the medium. […] At 7 days post-cutting, we assayed the worms for the morphology of blastemas.
We next sought to ascertain whether the anteriorizing effect was dependent on the AP (anterior-posterior) level from which the fragment originated. Worms were amputated at four levels to make five body fragments: head, pre-pharyngeal, trunk (including the pharynx), post-pharyngeal and tail fragments.
The asexual clonal strain GI of the planarian, Dugesia japonica, was used in these study. In all experiments, the worms were starved for 1 week before use.
Intact worms 1-1.5 cm long were put into heptanol (or hexanol) solution (0.0045-0.006% vigorously vortexed into spring water) immediately prior to amputation to equilibrate the worms with the drug solution. The worms were amputated at four levels to generate the head, pre-pharyngeal, trunk (or “pharyngeal”), post-pharyngeal, and tail fragments. Worm fragments were incubated at 22° C. for 2 days. The heptanol solution was exchanged for fresh solution every day. The worms were then washed with water twice and incubated in worm water for 14-20 days to monitor the phenotypes.
We developed a quantitative scheme allowing comparison of degree of anteriorization among groups of worms. Each worm was scored on the following scale by observing the posterior blastema: 0 points—normal (a normal worm with a fully-patterned tail), 1 point—weak anteriorization of posterior blastema (missing tail or bipolar pharynx), 2 points—stronger anteriorization of posterior blastema (incomplete ectopic head with eye structures), or 3 points—complete anteriorization of posterior blastema (bipolar head, where the ectopic head has complete development with 2 normal eyes). For each group of worms, we calculated an average score that is the sum of all scores for the worms divided by the total number of worms. For convenience, the index was scaled from 0 to 100 (final index=average score*100/3). On this scale, a group of worms that were all normal would score 0, while a group of worms all of which were fully double-head would score 100. This scheme was focused on ascertaining the extent of anteriorization as judged by external morphology.

Xenopus embryos = type: in vivo; conditions: treated from fertilization to stage 7; organs scored at stage 45

Row | SMILES | effect on rate or extent of tail regeneration [1] | other results
1 | CC1(C)[C@@H](O)CC[C@]2(C)[C@H]3C(=O)C=C4[C@@H]5C[C@@](C)(C(=O)O)CC[C@]5(C)CC[C@@]4(C)[C@]3(C)CC[C@@H]12 [18-β-glycyrrhetinic acid] | no effect | –
2 | Cc1nc2c(OCc3ccccc3)cccn2c1CC#N [SCH28080] | no effect | –
3 | C(=NC1CCCCC1)=NC1CCCCC1 [DCCD] | – | expression of Shh and Nodal (sidedness) [2]: randomized
4 | [Ba+2].[Cl-].[Cl-] [BaCl] | absence of regeneration | –
5 | CCCCCCCO [heptanol] | no effect | toxicity to the worms (Dugesia japonica; 1-10 μM): not toxic; trunk fragments with anteriorization of both blastemas (Dugesia japonica; 1-10 μM in the medium, scored 7 days post-cutting): 43%; complete bipolar heads (Dugesia japonica; 1-10 μM, trunk fragments): 16%
6 | N=C(N)NC(=O)c1nc(Cl)c(N)nc1N [amiloride] | no effect | –
7 | COc1ccc(Cl)cc1C(=O)NCCc1ccc(S(=O)(=O)NC(=O)NC2CCCCC2)cc1 [glibenclamide] | no effect | –
8 | CCOC(=O)c1cccc(N)c1 [tricaine] | absence of regeneration | –
9 | C[C@@H]1O[C@@H](O[C@H]2C[C@@H](O)[C@]3(CO)[C@H]4[C@H](O)C[C@]5(C)[C@@H](C6=CC(=O)OC6)CC[C@]5(O)[C@@H]4CC[C@]3(O)C2)[C@H](O)[C@H](O)[C@H]1O [ouabain] | no effect | –
10 | O=C1CCC(N2Cc3ccccc3C2=O)C(=O)N1 (centres unmarked) [EM12] | no effect | –
11 | O=C(O)c1c2ccccc2cc2ccccc12 [9-anthracene-carboxylic acid] | no effect | –
12 | CO/C1=C\C(C)=C\[C@@H](C)[C@@H](O)[C@@H](C)C/C(C)=C/C=C/[C@H](OC)[C@@H]([C@@H](C)[C@@H](O)[C@H](C)[C@@]2(O)C[C@@H](O)[C@H](C)[C@@H](C(C)C)O2)OC1=O [bafilomycin] | – | heterotaxia, % of the embryos (Xenopus embryos): 36%
13 | CCN(c1nc(N)c(C(=O)NC(=N)N)nc1Cl)C(C)C [EIPA, Ethylisopropyl amiloride] | no effect | –
14 | CC1=NS(=O)(=O)c2cc(Cl)ccc2N1 [diazoxide] | no effect | –
15 | CCCCCCO [hexanol] | – | strong anteriorization of the posterior blastema (Dugesia japonica; in vivo): never induced strong anteriorization; tail regeneration (Dugesia japonica; in vivo): did inhibit tail regeneration
16 | COc1ccc2c(c1OC)CN1CCc3cc4c(cc3C1C2)OCO4 (centres unmarked) [THB, Tetrahydroberberine] | no effect | –
